# *1 amine or outer side, *2 acyl side, *3 side chain or, on linkers, in order; H or OH if unused. Where a SMILES comes first, the peptide text is derived from it. Bridges are numbered along the chain shown (N, C = ends). [ ]: non-standard residue; d: D form. The star is where a group is joined. NMePhe(2-(4-MorPh),5-Cl) = CN[C@@H](Cc1cc(Cl)ccc1-c1ccc(N2CCOCC2)cc1)C(=O)O; X157 = CN([C@@H](Cc1cc(Cl)ccc1-c1ccc(S(=O)(=O)N2CCOCC2)cc1)C(=O)[*:2])[*:1]; X202 = CN([C@@H](Cc1cc(Cl)ccc1-c1ccc(N2CCN(CC(F)F)CC2)cc1)C(=O)[*:2])[*:1]; X198 = COC[C@H]1COCCN1c1ccc(-c2ccc(Cl)cc2C[C@@H](C(=O)[*:2])N(C)[*:1])cc1; X169 = CN([C@@H](Cc1cc(Cl)ccc1-c1ccc(-c2cnn3c2COCC3)cc1)C(=O)[*:2])[*:1]; X185 = CN([C@@H](Cc1cc(Cl)ccc1-c1ccc(N2CCOC(C)(C)C2)cc1)C(=O)[*:2])[*:1]; X179 = CN([C@@H](Cc1cc(Cl)ccc1-c1ccc(N2CCOCC2)c(C#N)c1)C(=O)[*:2])[*:1]; X165 = CN([C@@H](Cc1cc(Cl)ccc1-c1ccc(N2CCOCC2)c(Cl)c1)C(=O)[*:2])[*:1]; X191 = CN([C@@H](Cc1cc(Cl)ccc1-c1ccc(N2CCOCC2)c(F)c1F)C(=O)[*:2])[*:1]; X140 = CN([C@@H](Cc1cc(Cl)ccc1-c1ccc(Oc2cccnc2)cc1)C(=O)[*:2])[*:1]; X149 = CN([C@@H](Cc1cc(Cl)ccc1-c1ccnc(N2CCOCC2)c1F)C(=O)[*:2])[*:1]; X175 = Cc1cc(-c2ccc(Cl)cc2C[C@@H](C(=O)[*:2])N(C)[*:1])ccc1N1CCOCC1; X186 = CN([C@@H](Cc1cc(Cl)ccc1-c1ccc(N2CCOCC2)cn1)C(=O)[*:2])[*:1]; X136 = CN1CCOc2cc(-c3ccc(Cl)cc3C[C@@H](C(=O)[*:2])N(C)[*:1])ccc21; X87 = CN([C@@H](Cc1cc(F)ccc1-c1ccc(N2CCOCC2)cc1)C(=O)[*:2])[*:1]; NMehhhLys(Me) = CN([C@@H](CCCCCCCN(C)[*:3])C(=O)[*:2])[*:1]; X22 = CN([C@@H](Cc1cc(Cl)ccc1-c1cnn(C)c1)C(=O)[*:2])[*:1]; NMe(hhhLys) = CN([C@@H](CCCCCCCN[*:3])C(=O)[*:2])[*:1]; cBuCO(3,3-F2-1-CF3) = O=C(C1(C(F)(F)F)CC(F)(F)C1)*; Pro(trans-4-F) = O=C(O)[C@@H]1C[C@@H](F)CN1; Pro(4,4-F2) = O=C(O)[C@@H]1CC(F)(F)CN1; X201 = O=C(C1(C(F)F)CC(F)(F)C1)*; Gly(cPr) = N[C@H](C(=O)O)C1CC1
# What was measured:
# OVCAR3 cells = test: MTT proliferation assay, OVCAR3; assay type: cell-based; conditions: 5 days compound exposure, 1:3 serial dilution starting at 10 μM;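 further: compound given as an 8- or 10-point series, one day after plating, with exposure covering roughly 3-4 cell doublings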
# CyclinE1/CDK2 = target: T1, CyclinE1/CDK2 (Homo sapiens, UniProt P24864); test: Fluorescence Polarization (FP) competitive binding assay, Cyclin E1/Cdk2; conditions: 10 nM Cyclin E1/Cdk2, 2 nM FAM probe; average of 2-3 independent experiments; read-out: Cyclin E FP IC50;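 further: readings taken after two-hour equilibration at room temperature in HEPES buffer with NaCl, DTT, NP-40 and BSA, IC50 fitted from eight-concentration serial dilution series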
# T1 construct: purchased Eurofins, discovery 14-475
# CyclinB1/CDK1 = target: T2, CyclinB1/CDK1 (Homo sapiens, UniProt P14635); test: Fluorescence Polarization (FP) competitive binding assay, Cyclin B1/Cdk1; conditions: 10 nM Cyclin B1/Cdk1, 2 nM FAM probe; average of 2-3 independent experiments; read-out: Cyclin B FP IC50;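 further: fluorescence polarization read after equilibration at room temperature, with IC50 taken from serially diluted dose-response curves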
# T2 construct: purchased Eurofins, discovery 14-450
# CyclinA2/CDK2 = target: T3, CyclinA2/CDK2 (Homo sapiens, UniProt P20248); test: Fluorescence Polarization (FP) competitive binding assay, Cyclin A2/Cdk2; conditions: 8 nM Cyclin A2/Cdk2, 2 nM FAM probe; average of 2-3 independent experiments; read-out: Cyclin A FP IC50;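 further: plates equilibrated two hours at room temperature before polarization reading, IC50 fitted from eight-concentration compound titration curves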
# T3 construct: purchased CRELUX Protein Services
# NCI-H1048 cells = test: MTT proliferation assay, NCI-H1048; assay type: cell-based; conditions: 5 days compound exposure, 1:3 serial dilution starting at 10 μM;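 further: Dose-response in 96-well plates over 8 or 10 concentration points, with exposure spanning 3-4 cell doublings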
Compound,GI50 (OVCAR3 cells),IC50 (CyclinE1/CDK2),IC50 (CyclinB1/CDK1),IC50 (CyclinA2/CDK2),GI50 (NCI-H1048 cells)
"CC(C)C[C@@H]1NC(=O)[C@@H](N(C)C(=O)[C@@H](NC(=O)[C@@H]2C[C@@H](F)CN2C(=O)C2(C(F)(F)F)CC(F)(F)C2)C2CC2)CCCCCCCNC(=O)[C@H](Cc2cc(F)ccc2-c2ccc(N3CCOCC3)cc2)N(C)C1=O [Example 334] ({cBuCO(3,3-F2-1-CF3)}-[Pro(trans-4-F)][Gly(cPr)][NMe(hhhLys)]L[X87]; lactam 3-C)",10 nM,190 nM,20 nM,20 nM,10 nM
"CC(C)C[C@@H]1NC(=O)[C@@H](N(C)C(=O)[C@@H](NC(=O)[C@@H]2C[C@@H](F)CN2C(=O)C2(C(F)(F)F)CC(F)(F)C2)C2CC2)CCCCCCCN(C)C(=O)[C@H](Cc2cc(Cl)ccc2-c2ccc3c(c2)OCCN3C)N(C)C1=O [Example 342] ({cBuCO(3,3-F2-1-CF3)}-[Pro(trans-4-F)][Gly(cPr)][NMehhhLys(Me)]L[X136]; lactam 3-C)",10 nM,590 nM,20 nM,20 nM,10 nM
"CC(C)C[C@@H]1NC(=O)[C@@H](N(C)C(=O)[C@@H](NC(=O)[C@@H]2CC(F)(F)CN2C(=O)C2(C(F)(F)F)CC(F)(F)C2)C2CC2)CCCCCCCN(C)C(=O)[C@H](Cc2cc(Cl)ccc2-c2cnn(C)c2)N(C)C1=O [Example 343] ({cBuCO(3,3-F2-1-CF3)}-[Pro(4,4-F2)][Gly(cPr)][NMehhhLys(Me)]L[X22]; lactam 3-C)",10 nM,670 nM,20 nM,20 nM,10 nM
"Cc1cc(-c2ccc(Cl)cc2C[C@H]2C(=O)N(C)CCCCCCC[C@H](N(C)C(=O)[C@@H](NC(=O)[C@@H]3C[C@@H](F)CN3C(=O)C3(C(F)(F)F)CC(F)(F)C3)C3CC3)C(=O)N[C@@H](CC(C)C)C(=O)N2C)ccc1N1CCOCC1 [Example 344] ({cBuCO(3,3-F2-1-CF3)}-[Pro(trans-4-F)][Gly(cPr)][NMehhhLys(Me)]L[X175]; lactam 3-C)",20 nM,1270 nM,20 nM,20 nM,10 nM
"CC(C)C[C@@H]1NC(=O)[C@@H](N(C)C(=O)[C@@H](NC(=O)[C@@H]2C[C@@H](F)CN2C(=O)C2(C(F)(F)F)CC(F)(F)C2)C2CC2)CCCCCCCN(C)C(=O)[C@H](Cc2cc(Cl)ccc2-c2ccc(N3CCOCC3)c(Cl)c2)N(C)C1=O [Example 345] ({cBuCO(3,3-F2-1-CF3)}-[Pro(trans-4-F)][Gly(cPr)][NMehhhLys(Me)]L[X165]; lactam 3-C)",40 nM,3050 nM,20 nM,30 nM,20 nM
"CC(C)C[C@@H]1NC(=O)[C@@H](N(C)C(=O)[C@@H](NC(=O)[C@@H]2C[C@@H](F)CN2C(=O)C2(C(F)(F)F)CC(F)(F)C2)C2CC2)CCCCCCCN(C)C(=O)[C@H](Cc2cc(Cl)ccc2-c2ccnc(N3CCOCC3)c2F)N(C)C1=O [Example 349] ({cBuCO(3,3-F2-1-CF3)}-[Pro(trans-4-F)][Gly(cPr)][NMehhhLys(Me)]L[X149]; lactam 3-C)",10 nM,230 nM,20 nM,20 nM,10 nM
"CC(C)C[C@@H]1NC(=O)[C@@H](N(C)C(=O)[C@@H](NC(=O)[C@@H]2C[C@@H](F)CN2C(=O)C2(C(F)F)CC(F)(F)C2)C2CC2)CCCCCCCN(C)C(=O)[C@H](Cc2cc(Cl)ccc2-c2ccc(N3CCOCC3)cc2)N(C)C1=O [Example 350] (X201-[Pro(trans-4-F)][Gly(cPr)][NMehhhLys(Me)]L[NMePhe(2-(4-MorPh),5-Cl)]; lactam 3-C)",10 nM,880 nM,20 nM,20 nM,10 nM
"CC(C)C[C@@H]1NC(=O)[C@@H](N(C)C(=O)[C@@H](NC(=O)[C@@H]2C[C@@H](F)CN2C(=O)C2(C(F)(F)F)CC(F)(F)C2)C2CC2)CCCCCCCN(C)C(=O)[C@H](Cc2cc(Cl)ccc2-c2ccc(N3CCN(CC(F)F)CC3)cc2)N(C)C1=O [Example 352] ({cBuCO(3,3-F2-1-CF3)}-[Pro(trans-4-F)][Gly(cPr)][NMehhhLys(Me)]L[X202]; lactam 3-C)",10 nM,510 nM,20 nM,20 nM,10 nM
"CC(C)C[C@@H]1NC(=O)[C@@H](N(C)C(=O)[C@@H](NC(=O)[C@@H]2C[C@@H](F)CN2C(=O)C2(C(F)(F)F)CC(F)(F)C2)C2CC2)CCCCCCCN(C)C(=O)[C@H](Cc2cc(Cl)ccc2-c2ccc(S(=O)(=O)N3CCOCC3)cc2)N(C)C1=O [Example 354] ({cBuCO(3,3-F2-1-CF3)}-[Pro(trans-4-F)][Gly(cPr)][NMehhhLys(Me)]L[X157]; lactam 3-C)",20 nM,1340 nM,20 nM,30 nM,10 nM
"CC(C)C[C@@H]1NC(=O)[C@@H](N(C)C(=O)[C@@H](NC(=O)[C@@H]2C[C@@H](F)CN2C(=O)C2(C(F)(F)F)CC(F)(F)C2)C2CC2)CCCCCCCN(C)C(=O)[C@H](Cc2cc(Cl)ccc2-c2ccc(N3CCOC(C)(C)C3)cc2)N(C)C1=O [Example 366] ({cBuCO(3,3-F2-1-CF3)}-[Pro(trans-4-F)][Gly(cPr)][NMehhhLys(Me)]L[X185]; lactam 3-C)",20 nM,1050 nM,20 nM,20 nM,20 nM
"COC[C@H]1COCCN1c1ccc(-c2ccc(Cl)cc2C[C@H]2C(=O)N(C)CCCCCCC[C@H](N(C)C(=O)[C@@H](NC(=O)[C@@H]3C[C@@H](F)CN3C(=O)C3(C(F)(F)F)CC(F)(F)C3)C3CC3)C(=O)N[C@@H](CC(C)C)C(=O)N2C)cc1 [Example 373] ({cBuCO(3,3-F2-1-CF3)}-[Pro(trans-4-F)][Gly(cPr)][NMehhhLys(Me)]L[X198]; lactam 3-C)",10 nM,480 nM,20 nM,20 nM,10 nM
"CC(C)C[C@@H]1NC(=O)[C@@H](N(C)C(=O)[C@@H](NC(=O)[C@@H]2C[C@@H](F)CN2C(=O)C2(C(F)(F)F)CC(F)(F)C2)C2CC2)CCCCCCCN(C)C(=O)[C@H](Cc2cc(Cl)ccc2-c2ccc(-c3cnn4c3COCC4)cc2)N(C)C1=O [Example 378] ({cBuCO(3,3-F2-1-CF3)}-[Pro(trans-4-F)][Gly(cPr)][NMehhhLys(Me)]L[X169]; lactam 3-C)",20 nM,1120 nM,20 nM,20 nM,10 nM
"CC(C)C[C@@H]1NC(=O)[C@@H](N(C)C(=O)[C@@H](NC(=O)[C@@H]2C[C@@H](F)CN2C(=O)C2(C(F)(F)F)CC(F)(F)C2)C2CC2)CCCCCCCN(C)C(=O)[C@H](Cc2cc(Cl)ccc2-c2ccc(N3CCOCC3)c(C#N)c2)N(C)C1=O [Example 379] ({cBuCO(3,3-F2-1-CF3)}-[Pro(trans-4-F)][Gly(cPr)][NMehhhLys(Me)]L[X179]; lactam 3-C)",20 nM,2730 nM,20 nM,30 nM,30 nM
"CC(C)C[C@@H]1NC(=O)[C@@H](N(C)C(=O)[C@@H](NC(=O)[C@@H]2C[C@@H](F)CN2C(=O)C2(C(F)(F)F)CC(F)(F)C2)C2CC2)CCCCCCCN(C)C(=O)[C@H](Cc2cc(Cl)ccc2-c2ccc(N3CCOCC3)cn2)N(C)C1=O [Example 382] ({cBuCO(3,3-F2-1-CF3)}-[Pro(trans-4-F)][Gly(cPr)][NMehhhLys(Me)]L[X186]; lactam 3-C)",40 nM,2490 nM,20 nM,40 nM,90 nM
"CC(C)C[C@@H]1NC(=O)[C@@H](N(C)C(=O)[C@@H](NC(=O)[C@@H]2C[C@@H](F)CN2C(=O)C2(C(F)(F)F)CC(F)(F)C2)C2CC2)CCCCCCCN(C)C(=O)[C@H](Cc2cc(Cl)ccc2-c2ccc(Oc3cccnc3)cc2)N(C)C1=O [Example 385] ({cBuCO(3,3-F2-1-CF3)}-[Pro(trans-4-F)][Gly(cPr)][NMehhhLys(Me)]L[X140]; lactam 3-C)",20 nM,1630 nM,20 nM,20 nM,30 nM
"CC(C)C[C@@H]1NC(=O)[C@@H](N(C)C(=O)[C@@H](NC(=O)[C@@H]2C[C@@H](F)CN2C(=O)C2(C(F)(F)F)CC(F)(F)C2)C2CC2)CCCCCCCN(C)C(=O)[C@H](Cc2cc(Cl)ccc2-c2ccc(N3CCOCC3)c(F)c2F)N(C)C1=O [Example 386] ({cBuCO(3,3-F2-1-CF3)}-[Pro(trans-4-F)][Gly(cPr)][NMehhhLys(Me)]L[X191]; lactam 3-C)",20 nM,900 nM,20 nM,20 nM,30 nM
